Test results as given in patent US11667632B2, “2-(1H-indazol-3-yl)-3H-imidazo[4,5-C]pyridines and their anti-inflammatory uses thereof” (BioSplice Therapeutics, Inc., priority 2015, dated 2023).

Experiments:
[1] = Plasma concentrations after a single intra-articular injection of radiolabeled Compound 10 in rats; format: in vivo, Sprague Dawley (SD) rats; settings: SD rats, single IA injection 1 μg/knee
Protocol: Plasma concentration and distribution of Compound 10 following a single IA injection in Sprague Dawley (SD) rats were investigated in radiolabeled and mass balance studies with a tritium-labeled (^3H) Compound 10. [^3H]-Compound 10 was formulated as a suspension in 0.5% carboxymethylcellulose/0.05% polysorbate 80 for intra-articular (IA) injection and diluted with unlabeled Compound 10 to the appropriate concentration and injected in the rat knee joint at a dose level equivalent to 1 μg/knee.

[2] = Quantitative whole body autoradiography and excretion of radiolabeled Compound 10 in rats; format: in vivo; settings: SD rats, two IA injections at 1 μg/knee
Source text: In terms of excretion, 95% of the excreted radioactivity was recovered in the feces and only 5% in the urine. QWBA radiographic images and quantitation of radioactivity in the feces with much less recovery in the urine, support the hypothesis that [^3H]-Compound 10 is being eliminated by drainage in the lumbar and inguinal lymph ducts and lymph nodes, and through the small and large intestines and cecum in a mechanism consistent with slow passive fecal excretion, a major route of elimination of slowly metabolized xenobiotics. During this process, the radiolabeled [3H]-Compound 10 was degraded with only ˜1.5% of parent detected in the fecal matter.

[3] = tested on: Tumor Necrosis Factor Alpha (TNF-α); test: Inhibition of TNF-α secretion in IL-1β-stimulated synovial fibroblasts (SW982), ELISA; format: cell-based; settings: human synovial fibroblasts stimulated with IL-1β, treated 24 hrs, FIG. 14A
Protocol: Synovial fibroblasts (SW982 cells; ATCC) were cultured in Leibovitz's L-15 Medium (ATCC) with 10% FBS at 37° C. and 0% CO2. 24 hours before the start of the assay, media was changed to Leibovitz's L-15 Medium with […]. Compound 10 was dissolved in DMSO as a 10 mM stock and used to prepare compound source plates. A serial dilution (8-point dose-response) and compound transfer was performed using the ECHO 550 (Labcyte, Sunnyvale, Calif.) into 96-well clear bottom assay plates (Greiner Bio-One) with appropriate DMSO backfill for a final DMSO concentration of 0.05%. […] Plates were spun in a centrifuge for 1 minute at 10,000 rpm and supernatants were collected for ELISA.
Supernatants were diluted 1:1 for the TNFα assay and 1:4 for the IL6 assay using the assay medium. ELISA was performed using Human TNF-α ELISA MAX™ Deluxe (Catalog #430204, Biolegend, San Diego, Calif.) and Human IL-6 ELISA MAX™ Deluxe (Catalog #430504, Biolegend, San Diego, Calif.) kits. […] Following several washes to remove unbound avidin-HRP, the TMB substrate was added and the plates were read on the Cytation 3 plate reader (Biotek Inc., Winooski, Vt.) at an absorbance of 450 nm with correction at 570 nm. […] Inhibition profile and EC50 was calculated using Prism 5 (GraphPad Software Inc, La Jolla, Calif., USA).

For `CC(C)CC(=O)Nc1cncc(-c2ccc3[nH]nc(-c4nc5c(-c6cccc(F)c6)cncc5[nH]4)c3c2)c1` [Compound 10], the “Mean radioactivity exposure AUC(0-inf)” value ([1]; females) was 1.818 ng-equiv.h/g, the “Mean radioactivity exposure AUC(0-t)” value ([1]; females) was 1.040 ng-equiv.h/g and the Tmax ([1]; females) was 4 h. For the same compound, the “apparent terminal elimination half-life in the blood” value ([1]; females) was 124 h, the “Mean radioactivity exposure AUC(0-inf.)” value ([1]; males) was 1.548 ng-equiv.h/g and the “Mean radioactivity exposure AUC(0-t)” value ([1]; males) was 0.832 ng-equiv.h/g. For the same compound, the Tmax ([1]; males) was 1 h, the “apparent terminal elimination half-life in the blood” value ([1]; males) was 57 h and the “excreted radioactivity recovered in the feces” value [2] was 95%. For the same compound, the “excreted radioactivity recovered in the urine” value [2] was 5%, the “parent detected in the fecal matter” value [2] was roughly 1.5% and the “total radioactivity recovered from the whole carcass, feces, urine and cage wash” value ([2]; QWBA) was roughly 75%. The “radioactivity in major organs” value ([2]; at 1 hour and up to 168 hours post-IA injection) was “negligible/undetectable” and the “inhibition of TNF-a secretion” value [3] was “inhibition”.
